Where a name gives a salt, the structure may show the parent alone.

For the first assay, the target named is T1, purified enkephalinase Al (Rattus norvegicus, UniProt P07861).
T1 construct: the solubilised enzymes contained in the supernatant separated by DEAE-cellulose column chromatography; from tissue; host or cells: rat striatum, washed membrane pellet solubilised with Triton X-100, DEAE-cellulose then Sephacryl S.300
T1 sequence (P07861 1-750): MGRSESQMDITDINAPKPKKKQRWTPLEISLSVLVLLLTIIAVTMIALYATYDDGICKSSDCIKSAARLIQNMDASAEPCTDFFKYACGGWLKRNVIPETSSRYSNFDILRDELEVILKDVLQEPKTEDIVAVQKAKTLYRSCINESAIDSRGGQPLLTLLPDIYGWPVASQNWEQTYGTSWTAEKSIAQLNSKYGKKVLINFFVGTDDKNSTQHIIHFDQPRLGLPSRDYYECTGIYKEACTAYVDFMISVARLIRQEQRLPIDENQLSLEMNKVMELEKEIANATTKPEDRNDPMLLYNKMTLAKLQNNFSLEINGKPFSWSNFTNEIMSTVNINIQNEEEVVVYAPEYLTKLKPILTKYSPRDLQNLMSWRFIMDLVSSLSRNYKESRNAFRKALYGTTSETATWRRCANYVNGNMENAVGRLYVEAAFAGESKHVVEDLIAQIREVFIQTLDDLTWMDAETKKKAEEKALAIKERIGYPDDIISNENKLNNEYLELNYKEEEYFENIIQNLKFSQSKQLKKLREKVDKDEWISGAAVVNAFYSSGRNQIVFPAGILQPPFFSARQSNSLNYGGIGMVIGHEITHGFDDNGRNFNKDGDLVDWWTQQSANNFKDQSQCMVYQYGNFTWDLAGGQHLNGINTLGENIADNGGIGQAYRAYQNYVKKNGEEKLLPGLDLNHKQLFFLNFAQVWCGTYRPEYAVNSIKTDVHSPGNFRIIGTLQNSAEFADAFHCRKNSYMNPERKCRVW
Briefly: Enkephalinase-inhibiting activity in vitro (inhibition of 3H-TGG generation from 3H-leucine enkephalin). Format: biochemical. The following applies: approximate, determined graphically; leucine enkephalin 5×10^-5 M; 30° C.; 30 min with enzyme; read-out: IC50 (concentration of test compound required for 50% inhibition of 3H-TGG generation). The procedure: The compounds were investigated for enkephalinase-inhibiting activity using the following method.
Purified enkephalinase Al was obtained according to the following procedure (modification of the method of Gorenstein and Snyder, Life Science, Vol. 25, pages 2065-2070, 1979).
Rats were killed by decapitation and the striata dissected out on ice. The pooled tissues were homogenised in ice-cold Tris/hydrochloric acid buffer (50 mM, pH 7.70, 30 ml per gram of tissue) and centrifuged (50,000 g, 15 mins). The resulting supernatent was discarded and the remaining pellet washed three times. The washed pellet was solubilised by resuspension in half the volume of buffer as before containing 1.0% (v/v) Triton X-100 and incubated at 37° C. for 45 mins. The suspension was then centrifuged at 100,000 g for 60 mins and the solubilised enzymes contained in the supernatant separated by DEAE-cellulose column chromatography. Enkephalinase Al was further purified by Sephacryl S.300 chromatography.
Enkephalinase-inhibiting activity was estimated by the following procedure. 1.75 μl of leucine enkephalin (0.317 mg/ml), 0.5 μl of ^3 H-leucine enkephalin (tyrosyl-3,5-^3 H Enkephalin (5-L-Leucine), The Radiochemical Centre, Amersham, England) and 5.75 μl of buffer as before were incubated at 30° C. for 10 mins with 2 μl of either a solution of test compound (in either 50% ethanol/0.1 M sodium hydrogen carbonate or distilled water) or solvent alone as control. 10 μl of purified enkephalinase Al at 30° C. were added and incubation then continued for a further 30 mins (total incubation time 40 mins, final leucine enkephalin concentration 5×10^-5 M, final ^3 H-leucine enkephalin concentration 12.5 μCi/ml). At the completion of incubation 3 μl of 0.16 M hydrochloric acid was added and the incubation mixture cooled on ice.
Separation of (a) unchanged ^3 H-leucine enkephalin and (b) ^3 H-Tyr-Gly-Gly-OH (^3 H-TGG), generated from (a) by enkephalinase Al in the incubation mixture was effected by thin layer chromatography (plastic silica gel plates of 0.1 mm layer chromatography (plastic silica gel plates of 0.1 mm layer thickness, solvent system ethyl acetate: propan-2-ol: 5% (v/v) acetic acid, 2:2:1) using solutions of the cold compounds as carriers. After drying the materials were visualized with ninhydrin and appropriate areas of the plates cut out and placed in scintillation vials containing 50% methanol/0.1 M hydrochloric acid to elute the ^3 H label. Biofluor reagent (10 ml) was then added and the radioactivity determined by liquid scintillation counting.
The ^3 H-TGG generated in the presence of test compound (expressed as a percentage of the control figure) was then calculated and an approximate IC50 figure (concentration of test compound required for 50% inhibition of ^3 H-TGG generation) then determined graphically.
On to `COc1ccc(CC(C(=O)N[C@@H](CC(C)C)C(=O)O)P(=O)(O)O)cc1` (single isomer, unassigned) [Compound No. 1, N-[2-(Dihydroxyphosphinyl)-3-(4-methoxyphenyl)propionyl]-L-leucine], for which the IC50 stood at 1800 nM.
For the compound `CCOC(=O)[C@H](CC(C)C)NC(=O)C(Cc1ccccc1)CP(=O)(O)O` (single isomer, unassigned) [compound 11], the IC50 was 680 nM.
`CCOC(=O)[C@H](CC(C)C)NC(=O)C(Cc1ccccc1)CP(=O)(O)O` (single isomer, unassigned) [compound 12]: the IC50 was 100000 nM.
On to `CC(C)C[C@H](NC(=O)C(Cc1ccccc1)CP(=O)(O)O)C(=O)O` (single isomer, unassigned) [compound 13, N-[2-Benzyl-3-(dihydroxyphosphinyl)propionyl]leucine], for which the IC50 was 160 nM.
On to `CC(C)C[C@H](NC(=O)C(Cc1ccccc1)CP(=O)(O)O)C(=O)O` (single isomer, unassigned) [compound 14, N-[2-Benzyl-3-(dihydroxyphosphinyl)propionyl]leucine], for which the IC50 was 18000 nM.
On the same count and under the same terms, as for `C[C@H](CS)C(=O)N1CCC[C@H]1C(=O)O` [Captopril, 1-(D-3-mercapto-2-methylpropanoyl)-L-proline (S,S), reference compound], the figure is 30000 nM.
The same measure, in the same setting: as for `CC(C)C[C@H](NC(=O)C(Cc1ccccc1)P(=O)(O)O)C(=O)O` (stereo partly drawn) [Compound No. 7, N-[2-(Dihydroxyphosphinyl)-3-phenylpropionyl]-L-leucine tri-lithium salt], the figure is 680 nM.
`CC(C)C[C@H](NC(=O)C(Cc1ccc(Br)cc1)P(=O)(O)O)C(=O)O` (stereo partly drawn) [Compound No. 9, N-[3-(4-bromophenyl)-2-dihydroxyphosphinylpropionyl]-L-leucine, monosodium salt]: the IC50 was 6800 nM.
In the case of `CC(C)C[C@H](NC(=O)C(Cc1ccc(C(C)C)cc1)P(=O)(O)O)C(=O)O` (stereo partly drawn) [Compound No. 10, N-[2-dihydroxyphosphinyl-3-(4-isopropylphenyl)propionyl]-L-leucine, disodium salt], the IC50 worked out at 23000 nM.
On the same count and under the same terms, under `CCOC(=O)[C@H](CC(C)C)NC(=O)C(Cc1ccccc1)P(=O)(O)O` (stereo partly drawn) [compound 4, N-[2-(Dihydroxyphosphinyl)-3-phenylpropionyl.-L-leucine] ethyl ester] stands 600 nM.
As to `CCOC(=O)[C@H](CC(C)C)NC(=O)C(Cc1ccccc1)P(=O)(O)O` (stereo partly drawn) [compound 5, N-[2-(Dihydroxyphosphinyl)-3-phenylpropionyl.-L-leucine] ethyl ester], the IC50 was found to be 1500 nM.
In the case of `CC(C)C[C@H](NC(=O)C(Cc1ccccc1)P(=O)(O)O)C(=O)O` (stereo partly drawn) [compound 6, N-[2-(Dihydroxyphosphinyl)-3-phenylpropionyl]-L-leucine tri-lithium salt], the IC50 was 130 nM.

The same assay, now with this note: no effect at 3 × 10^-5; leucine enkephalin 5×10^-5 M; 30° C.; 30 min with enzyme; read-out: IC50 (footnote symbol: no effect).
For `CCOC(=O)[C@H](CC(C)C)NC(=O)C(Cc1ccccc1)P(=O)(OCC)OCC` (stereo partly drawn) [compound 2, N-[2-(Diethoxyphosphinyl)-3-phenylpropionyl]-L-leucine ethyl ester], the IC50 was greater than 30000 nM.
On the same count and under the same terms, as for `CCOP(=O)(OCC)C(Cc1ccccc1)C(=O)N[C@@H](CC(C)C)C(=O)O` (stereo partly drawn) [compound 8, N-[2-(Diethoxyphosphinyl)-3-phenylpropionyl]-L-leucine], the figure is greater than 30000 nM.

A further assay deals with ACE versus enkephalinase.
Experiment: not given
The following applies: reported by Swerts et al.; ACE vs enkephalinase; cited from earlier work.
In the case of `C[C@H](CS)C(=O)N1CCC[C@H]1C(=O)O` [Captopril, 1-(D-3-mercapto-2-methylpropanoyl)-L-proline (S,S), reference compound], the “concentration required to inhibit ACE by 50% lower than that required for the same degree of inhibition of enkephalinase” value is listed as “approximately 1000 fold”.

The record behind these values is US4423242A, “Pharmaceutical amides, and preparation, formulations and use of thereof” (The Wellcome Foundation Ltd., priority 1981, dated 1983).
